Data reported in PubChem BioAssay (NCI).
Values joined by “and” are separate entries in the source; they are usually repeats but may differ in a detail not shown here. Identical values can stand only once.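 Following 48 hours of exposure in 96-well plates, responses at five concentrations were used to interpolate endpoints linearly. At the GI50, growth is halved. TGI marks complete inhibition of growth.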 Where a SMILES comes first, the peptide text is derived from it. [ ]: non-standard residue; d: D form. The star is where a group is joined. NMeF = CN[C@@H](Cc1ccccc1)C(=O)O; NMeV = CN[C@H](C(=O)O)C(C)C; Boc = CC(C)(C)OC(=O)*; OBn = c1ccc(CO*)cc1

Columns and labels:
Experiment in all cases: inhibition of tumour cell growth, NCI panel, 48 h
[1] = test system: HCC-2998 colon
[2] = test system: HL-60(TB) leukemia
[3] = test system: KM12 colon
[4] = test system: UACC-62 melanoma
[5] = test system: EKVX NSCLC
[6] = test system: COLO 205 colon
[7] = test system: MDA-MB-231 breast
[8] = test system: PC-3 prostate
[9] = test system: OVCAR-5 ovarian
[10] = test system: HCT-116 colon

Row | Compound | GI50 [1] [µM] | TGI [1] | GI50 [2] [µM] | TGI [2] | GI50 [3] [µM] | TGI [3] [µM] | GI50 [4] [µM] | TGI [4] | GI50 [5] [µM] | TGI [5] [µM] | GI50 [6] [µM] | TGI [6] | GI50 [7] [µM] | TGI [7] [µM] | GI50 [8] [µM] | TGI [8] [µM] | GI50 [9] [µM] | TGI [9] [µM] | GI50 [10] [µM] | TGI [10]
1 | Cc1cc2cc3cc(C)c(N)cc3[n+](C)c2cc1N | 1.45 | 4.26 µM | 2.31 | 7.74 µM | 1.1 | 4.29 | 1.41 | 3.2 µM | 1.36 | 14.1 | 1.15 | 2.87 µM | 1.59 | 8.39 | 1.7 | 10.3 | 3.94 | 16 | 1.15 | 4.66 µM
2 | COc1cc(/C=C2\C(=O)N(c3ccccc3)c3ccccc32)cc(OC)c1OC | 10.6 | 23.9 µM | 2.68 | 15 µM | 3.84 | 20.1 | 7.12 | 21.6 µM | 23.5 | 65.6 | 14.4 | 71.3 µM | 4.12 | 26.1 | 3.13 | 16.1 | 14.1 | 29 | 3.47 | 12.4 µM
3 | O=C(NCCNc1nccc(-c2c(-c3ccc(F)cc3)nc3sccn23)n1)c1ccccc1 | 17.4 | 40.1 µM | 21.3 | 77.4 µM | 7.6 | 22.4 | 4.87 | 19.9 µM | 7.51 | 56.1 | 1.84 | 14.6 µM | 15.2 | 67.2 | 10.8 | 89.2 | 18.1 | 99.3 | 4.37 | 35.8 µM
4 | Clc1ccc(C2=NN[C@H](c3cn(-c4ccccc4)nc3-c3ccccc3)C2)cc1 | 11.4 | > 100 µM | 19.8 | > 100 µM | 11.1 | > 100 | 7.06 | 28.4 µM | 3.16 | 18.8 | 4.63 | 22.4 µM | 5.91 | 24.9 | 3.68 | 14.6 |  |  | 2.03 | 4.01 µM
5 | Cc1ccc(-c2nc(N)c(C#N)c3c2CCOc2c-3ccc3ccccc23)cc1 | 0.142 |  | 0.0891 | 0.916 µM | 0.203 | 48.6 | 0.935 | > 100 µM | 3.12 |  | 0.418 | > 100 µM | 0.07 | 0.626 | 0.186 | 7.51 | 4.74 | > 100 | 0.21 | 
6 | CCCCCCCCCCCCCCCCCC(=O)OCC(COC1OC(CS(=O)(=O)O)C(O)C(O)C1O)OC(=O)CCCCCCCCCCCCCCCCC (centres undefined) |  | > 100 µM |  | > 100 µM |  | > 100 |  | > 100 µM |  | > 100 |  | > 100 µM |  | > 100 |  | > 100 |  | > 100 |  | > 100 µM
7 | CC(C)[C@@H](C(=O)N1CCC[C@H]1C(=O)OCc1ccccc1)N(C)C(=O)[C@H](C(C)C)N(C)C(=O)[C@H](Cc1ccccc1)N(C)C(=O)[C@H](NC(=O)OC(C)(C)C)C(C)C (Boc-[dV][NMeF][NMeV][NMeV]P-OBn) | 68.9 | > 100 µM | 21.9 | > 100 µM | > 100 | > 100 |  | > 100 µM |  | > 100 | 36.1 | > 100 µM |  | > 50 |  | > 50 |  | > 100 | 19.6 | > 100 µM
8 | Cn1ccnc1C(=O)/C=C/c1ccc(CC(=O)Nc2ccc(F)cc2)cc1 | 3.78 | 7.95 µM | 1.6 | 12.4 µM | 1.62 | 5.52 | 3.51 | 7.75 µM | 5.5 | > 25 | 4.39 | 10.3 µM | 2.96 | 12.8 | 1.99 | 7.96 | 4.36 | 10.9 | 0.99 | 3.68 µM
9 | Cc1sc(NC2=NC(=O)/C(=C\c3ccccc3)S2)nc1-c1nc(NC2=NC(=O)/C(=C\c3ccccc3)S2)sc1C | 14.2 | 39.9 µM | 18 | > 50 µM | 11.1 | > 37.9 | 7.45 | 24 µM | 0.0627 | 1.94 | 26.4 | > 50 µM | 10.2 | 27 | 16.7 | > 50 | 26.2 | > 50 | 9.31 | 24.6 µM
10 | OCC1OC2OC3C(CO)OC(OC4C(CO)OC(OC5C(CO)OC(OC6C(CO)OC(OC7C(CO)OC(OC1C(O)C2O)C(O)C7O)C(O)C6O)C(O)C5O)C(O)C4O)C(O)C3O (centres undefined) (tested in a mixture with another compound) |  | > 100 µM |  | 55 µM |  | > 100 |  | > 100 µM |  | > 100 |  | > 100 µM |  | > 100 |  | > 100 |  | > 100 |  | > 100 µM
11 | CCn1c(-c2nonc2N)nc2cncc(C(=O)NCCNC)c21 | 4.77 | > 25 µM | > 25 | > 25 µM | > 25 | > 25 | 13.6 | > 25 µM | 0.903 | > 25 | 1.15 | 8.51 µM | > 25 | > 25 | > 25 | > 25 | 0.441 | > 25 | 2.78 | > 25 µM
12 | COc1ccc(-c2nn(-c3cccc(NC(=O)c4cccc(C(F)(F)F)c4)c3)cc2-c2ccncc2)cc1Cl | 3.29 | 17 µM | 2.96 | 8.64 µM | 1.35 | 9.7 | 2.27 | 24 µM |  |  | 1.77 | 3.53 µM | 1.77 | 16.1 | 1.98 | > 100 | 12.2 | > 100 | 3.05 | > 100 µM
13 | OCC1OC(n2cnc3c2NC=NC[C@H]3O)CC1O (some centres undefined) | > 588 | 402 µM and > 588 µM | 219 | 465 µM and > 588 µM |  | 500 | > 588 | 461 µM and > 588 µM |  | 500 | > 588 | 500 µM and > 588 µM |  | > 500 |  | > 500 | > 588 | > 588 | > 588 | 500 µM and > 588 µM
